In assay [1] the test system is HepG2 cells. Briefly: Morphological observation using DAPI staining. The assay is classed as cell-based, human. The note with it: HepG2, 2, 4, 8 μM for 72 h. How it is done: DAPI staining was used to evaluate apoptosis associated morphological changes in this assay. HepG2 cells were seeded in the six well plates at a density of 4 × 10^3 cells/well and incubated overnight. Then the cells were incubated in the presence of 4a at various concentrations (2, 4, 8 μΜ) at 37 °C and 5% CO2 for 72 h. Cells were then washed with PBS, fixed with 4% paraformaldehyde followed by 70% ethanol. Finally, fixed cells were stained with DAPI (DAPI, Molecular Probes/Invitrogen Life Technologies, Carlsbad, CA, USA) at the concentration of 1 mg/mL and incubated for 1 min in dark. The cell morphological changes were observed by fluorescent microscopy and images were captured by digital camera.

The test system of assay [2] is HepG2 cells. In words: Apoptosis analysis by flow cytometry using Annexin V-FITC/PI staining. The assay is classed as cell-based, human. The note with it: 72 h, control 6%. How it is done: To substantiate the ability of 4a to induce apoptosis, further analysis was carried out using Annexin V-FITC/PI double staining technique in HepG2 cells. Cells stained with Annexin V-FITC and PI were classified as necrotic (Q1; Annexin^−/PI^+), late apoptotic (Q2; Annexin^+/PI^+), intact (Q3; Annexin^−/PI^−), or early apoptotic (Q4; Annexin^+/PI^−) cells. […] Even at the minimum concentration of 5 μM, 4a induced cell apoptosis at a ratio of 75.7% after 72 h of treatment.
The Annexin V-FITC/PI flow cytometric assay was performed to determine the early and late apoptosis in this assay according to the instruction of the manufacturer (Annexin V-FITC/PI, Beijing BioDee Biotech. Co., Ltd., Beijing, China). Briefly, HepG2 cells were treated with various concentrations of compound 4a (5, 6, 7 μM) for 72 h at 37 °C, then the treated cells were washed twice with cold PBS and centrifuged at 1000 rpm for 5 min. The harvested cells were resuspended in 200 μL binding buffer, containing 10 μL Annexin V-FITC. After 15 min, the cells were washed twice and resuspended in 300 μL binding buffer. At the same time, 10 μL PI was added. Then the cells were immediately analyzed with a flow cytometry.

Assay [3] deals with HepG2 cells. Briefly: Morphological observation using AO/EB double staining. The assay is classed as cell-based, human. The note with it: HepG2, 2, 4, 8 μM for 72 h. How it is done:
To further characterize 4a-induced HepG2 cell apoptosis, the changes in cell morphology of the treated cells were determined using AO/EB double staining. AO is a vital dye that stains both live and dead cells as it can penetrate normal cell membrane. EB stains only cells that have lost their membrane integrity. Cells that stained green indicate viable cells, yellow indicate early apoptosis and orange/red indicate late apoptosis.
Apoptotic study was performed using AO/EB double staining. HepG2 cells were seeded in six well plates at a density of 1 × 10^4 cells/well and allowed to grow for 24 h. Then the cells were incubated in the presence of 4a at various concentrations (2, 4, 8 μΜ) at 37 °C and 5% CO2 for 72 h. After the treatment period, cells were collected and centrifuged; then the cells were suspended in phosphate-buffer saline (PBS) and centrifuged again. The liquid was removed; the cells were suspended in PBS. Then AO/EB (AO/EB, Sigma, USA) solution (1:1 v/v) was added to the cell suspension in a final concentration of 100 μg/mL. Cell morphologies were assessed under a fluorescent microscope.

Assay [4] concerns Hela (human cervical cancer). In words: MTT cytotoxicity assay, Hela. The format is cell-based. The note with it: 72 h, maximal tested concentration 20.0 μM. How it is done:
(§1) The cytotoxicity of ligustrazine-triterpenes derivatives was evaluated on five tumor cell lines (Bel-7402, HepG2, HT-29, Hela, and MCF-7) using the standard MTT assay. In the study, the antineoplastic drug cisplatin (DDP) was selected as the positive control. The MDCK cell line was used to test the toxicity of the ligustrazine-triterpenes derivatives and DDP.
(§2) The cell lines Bel-7402 (human hepatocellular carcinoma), HepG2 (human hepatocellular carcinoma), HT-29 (human colon carcinoma), Hela (human cervical cancer), MCF-7 (human breast cancer) were included in this study. All these cell lines were provided by the Chinese Academy of Medical Sciences & Peking Union Medical College. Cultures were maintained as monolayers in RPMI 1640 supplemented with 10% (v/v) heat inactivated fetal bovine serum and 1% (v/v) enicillin/streptomycin (Thermo Technologies, New York, NY, USA) at 37 °C in a humidified atmosphere with 5% CO2. The ligustrazine derivatives under study were dissolved in DMSO (Sigma, St. Louis, MO, USA) and added at required concentrations to the cell culture. Cells incubated without the preparations served as the control.
(§3) The cytotoxicity of the compounds was evaluated on five cancer cell lines (Bel-7402, HepG2, HT-29, Hela, MCF-7) by the standard MTT assay. In short, exponentially growing cells were seeded into 96-well plates at a density 10^4 cells/mL. The plates were incubated at 37 °C in a humidified 5% CO2 atmosphere. Cells were allowed to adhere to the surface for 24 h and then treated with serial dilutions of the compounds for 72 h. Later, aliquots of [3-(4,5-dimethylthiazol-2-yl)-2,5-diphenyltetrazolium bromide] (MTT) solution (20 μL, 5 mg/mL) were added to each well and the incubation was continued for an additional 4 h. Then the supernatant medium was thrown away. The dark blue formazan crystals formed within the healthy cells were solubilized with DMSO (150 μL) and the absorbance was measured in a plate reader (BIORAD 550 spectrophotometer, Bio-rad Life Science Development Ltd., Beijing, China) at 490 nm. Wells containing no drugs were used as control group. The IC50 values were defined as the concentration of compounds that produced a 50% reduction of surviving cells and calculated using Logit-method. Tumor cell growth inhibitory rate was calculated in the following Equation (1): % inhibition = (1 − Sample group OD/Control group OD) × 100% (1)

The subject of assay [5] is HepG2 (human hepatocellular carcinoma). Briefly: MTT cytotoxicity assay, HepG2. The format is cell-based. The note with it: for pIC50: 72 h, maximal tested concentration 20.0 μM. How it is done:
as §1, §2, §3

For assay [6], the system named is Madin-Darby canine kidney cell line (MDCK). In words: MTT cytotoxicity (nephrotoxicity/selectivity) assay, MDCK. The format is cell-based. The note with it: Canis lupus familiaris.
In assay [7] the test system is HT-29 (human colon carcinoma). Briefly: MTT cytotoxicity assay, HT-29. The format is cell-based. The note with it: maximal tested concentration 20.0 μM. Here is the method:
as §1, §2, §3

The subject of assay [8] is MCF-7 (human breast cancer). In words: MTT cytotoxicity assay, MCF-7. The format is cell-based. The note with it: maximal tested concentration 20.0 μM. How it is done:
as §1, §2, §3

Assay [9] has as its system Bel-7402 (human hepatocellular carcinoma). Briefly: MTT cytotoxicity assay, Bel-7402. The note with it: maximal tested concentration 20.0 μM. The assay is classed as cell-based. How it is done: as §1, §2, §3

pIC50: −log10 of the molar value.

As to `C=C(C)[C@@H]1CC[C@]2(C(=O)OCc3nc(C)c(C)nc3C)CC[C@]3(C)C(CCC4[C@@]5(C)CC[C@H](O)C(C)(C)C5CC[C@]43C)C12` (stereo partly drawn) [Compound 4a, 3β-Hydroxy-lup-20(29)-ene-28-oic acid-3,5,6-trimethylpyrazin-2-methyl ester], the “cell morphology after DAPI staining” value with HepG2 cells [1] is “displayed morphological features of apoptosis”. Besides, the “apoptosis ratio (early and late apoptosis)” value was 75.7% in the assay with HepG2 cells [2] (HepG2, 5 μM); 76.6% in the assay with HepG2 cells [2] (HepG2, 6 μM); 83.7% with HepG2 cells [2] (HepG2, 7 μM). Moreover, in the assay on HepG2 cells [3], the “cell morphology after AO/EB double staining” value was “increased number of orange- and red-stained cells in a dose dependent manner”. In addition, the pIC50 in [4] was 5.36; in assay [4] (Homo sapiens, HeLa) it was greater than 5.28; in assay [5], 5.35; in assay [5] (Homo sapiens, HepG2, 72 h), greater than 5.28; in [6] (maximal tested concentration 20.0 μM, toxicity to MDCK kidney cells), less than 4.70; in assay [7] (72 h), 5.28. Moreover, the pIC50 in assay [7] (Homo sapiens, HT-29, 72 h) is greater than 5.28; in [8] (72 h) it was 5.37; in assay [8] (Homo sapiens, MCF7, 72 h), greater than 5.28; in [9] (72 h) it was 5.38; in assay [9] (Homo sapiens, Bel-7402, 72 h) it was greater than 5.28. In addition, the inhibition at 10 µM in assay [5] (Homo sapiens, HepG2, 10 μM, read-out: inhibition rate against HepG2) was 99.9%; in assay [6] (MDCK, 10 μM, read-out: inhibition rate against MDCK), roughly 26.5%.

The record behind these values is PMC4613240, “A Series of New Ligustrazine-Triterpenes Derivatives as Anti-Tumor Agents: Design, Synthesis, and Biological Evaluation” (International Journal of Molecular Sciences, 2015).
